From article PMC8619046, “ABCB1 and ABCG2 Control Brain Accumulation and Intestinal Disposition of the Novel ROS1/TRK/ALK Inhibitor Repotrectinib, While OATP1A/1B, ABCG2, and CYP3A Limit Its Oral Availability” (Pharmaceutics, 2021)
Where “and” joins values, the source holds several entries; their conditions need not be identical. Equal entries are not always repeated. Where two headings read alike, the source gives them in different places.

Tests used:
[1] = 8-h pilot oral plasma pharmacokinetics and tissue distribution, female wild-type, Abcb1a/1b;Abcg2−/− and Oatp1a/1b−/− mice; format: in vivo; conditions: 10 mg/kg oral; for Fold change (SIC (% of dose)-to-plasma ratio) / Fold change SIC (% of dose) / Fold increase Cbrain / Fold increase Cliver / Fold increase ratio (liver-to-plasma) / Fold change AUC0-8h / Fold increase ratio (brain-to-plasma): vs wild-type; for Kp at 8 h / concentration at 8 h / Cmax / AUC(0-t): female, po; for AUC(0-t): read-out: AUC0-8h
Source text: (§1) Mice with similar average ages (and body weights) were randomly allocated in experimental groups as far as possible. Mice were maintained in a temperature-controlled and specific pathogen-free environment with a 12-h light and 12-h dark cycle and they received a standard diet (Transbreed, SDS Diets, Technilab-BMI, Someren, The Netherlands) and acidified water ad libitum. […] Given the objective main readout (repotrectinib plasma and tissue concentrations as measured by LC-MS/MS), no blinding method was applied.
Repotrectinib was dissolved in dimethyl sulfoxide (DMSO) at a concentration of 50 mg/mL. This stock solution was first diluted 3-fold with ethanol/polysorbate 80 (1/1; v/v), followed by further dilution with a 10 mM hydrochloric acid solution, yielding a dosing solution of 1 mg/mL, freshly prepared on the day of experiment. Final concentrations of the solvents in the administration solution were: 2%, 2%, 2%, and 94% (all v/v) for DMSO, ethanol, polysorbate 80, and 10 mM hydrochloric acid solution, respectively.
To minimize variation in absorption upon oral administration, mice were fasted for 2–3 h before repotrectinib (10 mg/kg body weight) was administered by gavage into the stomach at 10 µL/g body weight, with a blunt-ended needle. Tail vein serial blood samples were collected at 0.125, 0.25, 0.5, 1, 2 and 4 h using heparinized capillary tubes (Sarstedt, Nümbrecht, Germany) for the 8-h experiments. For the 4- and 2-h experiments, blood samplings were performed from the tail vein with the same schedule, but terminated at 2 and 1 h, respectively. Eight, four, or two hours after oral administration, mice were deeply anesthetized with 2–3% isoflurane, followed by cardiac puncture to collect blood in Eppendorf tubes containing heparin as an anticoagulant. Brain, liver, spleen, kidney, lung, small intestine, and testis were rapidly collected after sacrificing the mice by cervical dislocation. The small intestinal contents (SIC) were separated from small intestinal tissue (SI), which was flushed and rinsed with cold saline to remove any residual feces. Brain, liver, spleen, kidney, lung, SI, SIC, and testis were homogenized with 1, 3, 1, 2, 1, 3, 2, and 1 mL of 2% BSA (w/v), respectively. Plasma fraction was isolated from blood by centrifugation at 9000× g for 6 min at 4 °C. All samples were stored at −30 °C until analysis.
(§2) A sensitive and specific liquid chromatography-tandem mass spectrometry method using protein precipitation pre-treatment was adopted to quantify the concentration of repotrectinib in DMEM medium, plasma samples and tissue homogenates.
A non-compartmental model using the PKSolver add-in program for Microsoft Excel was adopted to calculate the pharmacokinetic parameters of repotrectinib. Oral availability was assessed by the plasma area under the curve (AUC), calculated using repotrectinib plasma concentration-time curves with the linear trapezoidal rule without extrapolating the infinity. Statistical testing was performed in Graphpad Prism7 (Graphpad Software, La Jolla, CA, USA). All data are presented as geometric means ± SD. Heteroscedastic data were log-transformed before applying statistical analysis. When differences between two groups were compared, the two-sided unpaired Student’s t test was used. One-way analysis of variance (ANOVA) was applied when multiple groups were compared, and the Bonferroni post hoc correction was used to accommodate multiple testing. Differences were considered statistically significant when P < 0.05.

[2] = Oral plasma pharmacokinetics compared across experiments and mouse strains; format: in vivo, mice
Source text: as §1
Repotrectinib was dissolved in dimethyl sulfoxide (DMSO) at a concentration of 50 mg/mL. […]
as §2
A non-compartmental model using the PKSolver add-in program for Microsoft Excel was adopted to calculate the pharmacokinetic parameters of repotrectinib. Oral availability was assessed by the plasma area under the curve (AUC), calculated using repotrectinib plasma concentration-time curves with the linear trapezoidal rule without extrapolating the infinity. […]

[3] = Table S1, female Abcb1a/1b;Abcg2−/− mice, 8 h
[4] = Table S1, female Abcb1a/1b;Abcg2−/− mice, 8 h, 10 mg/kg
[5] = Table S1, female Oatp1a/1b−/− mice, 8 h
[6] = Table S1, female wild-type mice, 8 h
[7] = FVB, mouse, plasma, 10 mg/kg, Table S1, female Abcb1a/1b;Abcg2−/− mice, 8 h
[8] = FVB, mouse, plasma, 10 mg/kg, Table S1, female wild-type mice, 8 h

C[C@H]1CNC(=O)c2cnn3ccc(nc23)N[C@H](C)c2cc(F)ccc2O1 [repotrectinib]
Tmax ([1]; >99% FVB background, mouse, plasma, female wild-type and Abcb1a/1b;Abcg2−/− mice, 8-h pilot, read-out: time of peak plasma concentrations after dosing (converted)): 30 min | Tmax ([1]; FVB, mouse, plasma, Table S1, median (range), female wild-type mice, 8 h, read-out: Tmax): 30 min | SIC (% of dose) [1, 3]: 0.22 ± 0.20 % of dose | SIC (% of dose)-to-plasma ratio [1, 3]: 0.48 ± 0.43 ·10-3 | Fold change (SIC (% of dose)-to-plasma ratio) [1, 3]: 0.054 | Fold change SIC (% of dose) [1, 3]: 0.11 | Fold increase Cbrain [1, 3]: 19.5 | Fold increase Cliver [1, 3]: 1.50 | Fold increase ratio (liver-to-plasma) [1, 3]: 0.79 | Fold change AUC0-8h [1, 4]: 1.42 and 1.4 | Fold increase ratio (brain-to-plasma) [1, 4]: 9.46 and 9.5 | SIC (% of dose) [1, 5]: 5.59 ± 3.32 % of dose | SIC (% of dose)-to-plasma ratio [1, 5]: 14.5 ± 8.9 ·10-3 | Fold change (SIC (% of dose)-to-plasma ratio) [1, 5]: 1.63 | Fold change SIC (% of dose) [1, 5]: 2.69 | Fold increase Cbrain [1, 5]: 3.64 | Fold increase Cliver [1, 5]: 1.43 | Fold increase ratio (brain-to-plasma) [1, 5]: 1.85 | Fold increase ratio (liver-to-plasma) [1, 5]: 0.86 | Fold change AUC0-8h ([1]; Table S1, female Oatp1a/1b−/− mice, 8 h, 10 mg/kg): 1.51 and 1.5 | SIC (% of dose) [1, 6]: 2.08 ± 1.35 % of dose | SIC (% of dose)-to-plasma ratio [1, 6]: 8.87 ± 1.83 ·10-3 | Fold change (SIC (% of dose)-to-plasma ratio) [1, 6]: 1.00 | Fold change AUC0-8h [1, 6]: 1.00 | Fold change SIC (% of dose) [1, 6]: 1.00 | Fold increase Cbrain [1, 6]: 1.00 | Fold increase Cliver [1, 6]: 1.00 | Fold increase ratio (brain-to-plasma) [1, 6]: 1.00 | Fold increase ratio (liver-to-plasma) [1, 6]: 1.00 | Tmax ([1]; Table S1, median (range), female Abcb1a/1b;Abcg2−/− mice, 8 h): 0.5 (0 .5-1) h | Tmax ([1]; Table S1, median (range), female Oatp1a/1b−/− mice, 8 h): 0.5 (0.25-1) h | Kp at 8 h ([1]; FVB, mouse, brain, 10 mg/kg, Table S1, female Abcb1a/1b;Abcg2−/− mice, 8 h, read-out: Brain-to-plasma ratio): 2.46 ± 0.31 | concentration at 8 h ([1]; FVB, mouse, brain, 10 mg/kg, Table S1, female Abcb1a/1b;Abcg2−/− mice, 8 h, read-out: Cbrain): 1000 ± 320 ng/g | Kp at 8 h ([1]; FVB, mouse, brain, 10 mg/kg, Table S1, female Oatp1a/1b−/− mice, 8 h, read-out: Brain-to-plasma ratio): 0.48 ± 0.12 | concentration at 8 h ([1]; FVB, mouse, brain, 10 mg/kg, Table S1, female Oatp1a/1b−/− mice, 8 h, read-out: Cbrain): 186 ± 51.4 ng/g | Kp at 8 h ([1]; FVB, mouse, brain, 10 mg/kg, Table S1, female wild-type mice, 8 h, read-out: Brain-to-plasma ratio): 0.26 ± 0.12 | concentration at 8 h ([1]; FVB, mouse, brain, 10 mg/kg, Table S1, female wild-type mice, 8 h, read-out: Cbrain): 51.2 ± 17.8 ng/g | concentration at 8 h ([1]; FVB, mouse, liver, 10 mg/kg, Table S1, female Abcb1a/1b;Abcg2−/− mice, 8 h, read-out: Cliver): 1780 ± 770 ng/mL | Kp at 8 h ([1]; FVB, mouse, liver, 10 mg/kg, Table S1, female Abcb1a/1b;Abcg2−/− mice, 8 h, read-out: Liver-to-plasma ratio): 4.21 ± 0.35 | concentration at 8 h ([1]; FVB, mouse, liver, 10 mg/kg, Table S1, female Oatp1a/1b−/− mice, 8 h, read-out: Cliver): 1750 ± 450 ng/mL | Kp at 8 h ([1]; FVB, mouse, liver, 10 mg/kg, Table S1, female Oatp1a/1b−/− mice, 8 h, read-out: Liver-to-plasma ratio): 4.59 ± 1.28 | concentration at 8 h ([1]; FVB, mouse, liver, 10 mg/kg, Table S1, female wild-type mice, 8 h, read-out: Cliver): 1220 ± 650 ng/mL | Kp at 8 h ([1]; FVB, mouse, liver, 10 mg/kg, Table S1, female wild-type mice, 8 h, read-out: Liver-to-plasma ratio): 5.36 ± 0.54 | Cmax [1, 7]: 6190 ± 440 ng/mL | AUC(0-t) [1, 7]: 23100 ± 2110 ng·h/mL | AUC(0-t) ([1]; FVB, mouse, plasma, 10 mg/kg, Table S1, female Oatp1a/1b−/− mice, 8 h): 24600 ± 3270 ng·h/mL | Cmax [1, 8]: 4800 ± 1780 ng/mL | AUC(0-t) [1, 8]: 16300 ± 6350 ng·h/mL | Cmax ([1]; Oatp1a/1b−/−, >99% FVB background, mouse, plasma, 10 mg/kg, Table S1, female Oatp1a/1b−/− mice, 8 h): 6150 ± 800 ng/mL | Tmax ([2]; plasma, 10 mg/kg, all tested mouse strains, oral administration): ~30 min | plasma levels, female relative to male mice ([2]; same oral dose 10 mg/kg, Figure 3 vs Figure S1): about 1.6 fold
